Test results from patent US8481527B2, “Benzamide derivatives as bradykinin antagonists” (Richter Gedeon Nyrt., priority 2006, dated 2013).
Counter-ions that a name gives are not always drawn. Like-named read-outs stand apart in the source and are kept apart here.

Legend:
[1] = target: T1, human recombinant bradykinin B1 receptor (Homo sapiens, UniProt P46663); experiment: Human recombinant bradykinin B1 receptor binding
T1 construct: purchased Euroscreen ES-091; host or cells: CHO cells
T1 sequence (P46663 1-353): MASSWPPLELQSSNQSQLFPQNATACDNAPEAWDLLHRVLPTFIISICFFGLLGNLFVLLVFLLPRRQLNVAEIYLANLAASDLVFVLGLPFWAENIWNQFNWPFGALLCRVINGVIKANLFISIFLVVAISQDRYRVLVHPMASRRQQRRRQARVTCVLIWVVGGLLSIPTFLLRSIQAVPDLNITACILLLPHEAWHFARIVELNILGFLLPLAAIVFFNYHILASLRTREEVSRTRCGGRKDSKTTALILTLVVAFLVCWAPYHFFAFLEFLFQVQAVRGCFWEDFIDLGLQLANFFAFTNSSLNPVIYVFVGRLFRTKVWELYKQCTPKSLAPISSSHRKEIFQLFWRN
Procedure: Receptor Binding Assays 1. Human Recombinant Bradykinin B1 Receptor Binding
Binding assays were carried out on human recombinant bradykinin) receptors (expressed in CHO cells) according to the Euroscreen Technical Data Sheet (Cat.No.:ES-091). 20 μg protein/tube was incubated with [3,4-prolyl-3,4-^3H(N)]-[Des-Arg^10] Kallidin as radioligand. Non specific binding was determined in the presence of 10 μM Lys-des-Arg^9-Bradykinin. The final incubation volume was 250 μl. Samples were incubated for 15 min. at 25° C. then were rapidly vacuum filtered through GF/B filters presoaked for at least 1 h in 0.5% PEI. Radioactivity was determined by liquid scintillation spectroscopy.

[2] = target: T2, recombinant human B1 receptors (Homo sapiens, UniProt P46663); experiment: Functional assay: antagonist potency by cytosolic calcium measurement in CHO-B1 cells (agonist LysDABK); format: cell-based
T2 construct: host or cells: CHO (CHO-B1)
T2 sequence (P46663 1-353): T1 sequence (P46663 1-353)
Procedure: Assessment of Antagonist Potency at B1 and B2 Receptors In Vitro by Measurement of Cytosolic Calcium Ion Concentration with a Plate Reader Fluorimeter in Cells Expressing Recombinant Human B1 or B2 Receptors
Chinese hamster ovary (CHO) cells stably expressing recombinant human B1 (CHO-B1, Euroscreen) or B2 (CHO-B2, Perkin-Elmer) receptors were cultured in Dulbecco's Modified Eagle's Medium (DMEM) containing 10% Fetal Calf Serum (FCS), 100 U/ml penicillin, 0.1 mg/ml streptomycin, 0.25 μg/ml amphotericin B, 1% Minimum Essential Medium Eagle (MEM), non essential amino acid solution, 600 μg/ml G418, 1% pyruvate (for the B2 cell line). Cells were kept at 37° C. in a humidified incubator in an atmosphere of 5% CO2/95% air and were passaged 1:4 three times a week. Cells were plated at 1.5-2.5×10^4 cell/well on standard 96-well microplates, measurements of cytosolic calcium ion concentration ([Ca^2+]i) were carried out 1-2 days after cell plating.
Measurements of [Ca^2+]i were carried out on CHO-B1 and CHO-B2 cells stably expressing human B1 and B2 receptors, respectively. Cells were grown in standard 96-well microplates and before the measurement were loaded with a fluorescent Ca^2+-sensitive dye, fluo-4/AM (2 μM): after removing the culture medium the dye was added to the cells (dissolved in assay buffer: 145 mM NaCl, 5 mM KCl, 2 mM MgCl2, 2 mM CaCl2, 10 mM HEPES, 20 mM D-glucose, 2 mM probenecid, 100 μl/well) and cells were incubated at 37° C. in a humidified incubator in an atmosphere of 5% CO2/95% air for 40-120 min. To stop dye loading cells were washed twice with assay buffer. After washing, various concentrations of the test compounds (diluted in extracellular medium from a DMSO stock solution, final DMSO concentration was <0.1%) or buffer were added to each well depending on the experimental setup. After incubation at 37° C. for 20-25 min. baseline and agonist-evoked changes of [Ca^2+]i were measured column by column with a plate reader fluorimeter (Fluoroskan Ascent, Labsystems). Excitation and detection of emission was carried out from the bottom of the plate. Filters used for Fluo-4: excitation filter—485 nm, emission filter—538 nm. The whole measurement process was performed at 37° C. and was controlled by custom software. Inhibitory potency of the test compounds was assessed by measuring the reduction in the agonist-evoked [Ca^2+]i-elevation in the presence of different concentrations of the compounds. The agonists were LysDABK for CHO-B1, and bradykinin for CHO-B2 cells. Agonists were applied at an EC80 concentration, the EC80-values were derived from daily determined dose-response curves. Fluorescence data were expressed as ΔF/F (fluorescence change normalized to baseline). All treatments on a single plate were measured in multiple wells. Data from all wells with the same treatment were averaged and the average values were used for analysis. Inhibitory potency of a compound at a single concentration point was expressed as percent inhibition of the control agonist response. Sigmoidal concentration-inhibition curves were fitted to the data (derived from at least three independent experiments) and IC50-values were determined as the concentration that produces half of the maximal inhibition caused by the compound.

[3] = CHO cell membranes, [3H]-[Des-Arg10] Kallidin radioligand, read-out: B1 binding
[4] = CHO-B1 cells, LysDABK at EC80, fluo-4 [Ca2+]i, read-out: B1 func.

Row | SMILES | Ki [1, 3] | IC50 [2, 4] | Ki ([1]; reference compounds, binding test, read-out: Ki) | IC50 ([2]; reference compounds, functional test, read-out: IC50)
1 | O=C(NCC(=O)N1CCC(CCN2CCCC2)CC1)c1ccc(S(=O)(=O)Nc2ccccc2C(=O)c2ccccc2)cc1 [Example 3.15, 4-(2-Benzoyl-phenylsulfamoyl)-N-{2-oxo-2-[4-(2-pyrrolidin-1-yl-ethyl)-piperidin-1-yl]-ethyl}-benzamide] | < 0.02 µM | < 0.02 µM |  | 
2 | O=C(NCC(=O)N1CCN(CCCN2CCCCC2)CC1)c1ccc(S(=O)(=O)Nc2ccccc2Oc2ccc(Cl)cc2Cl)cc1 [Example 1.9, 4-[2-(2,4-Dichloro-phenoxy)-phenylsulfamoyl]-N-{2-oxo-2-[4-(3-piperidin-1-yl-propyl)-piperazin-1-yl]-ethyl}-benzamide] | < 0.02 µM | < 0.02 µM |  | 
3 | CCCN1C(=O)[C@H](NC(=O)Nc2ccc(N3CCC(N4CCCCC4)CC3)cc2)N=C(c2ccc(C)cc2)c2ccccc21 [compound 3, N-[4-(,4′-bipiperidin)-1′-ylphenyl]-N′-[(3R)-2,3-dihydro-5-(4-methyl-phenyl)-2-oxo-1-propyl-1H-1,4-benzodiazepin-3-yl]-urea, reference compound] |  |  | 0.0134 µM | 0.0645 µM
4 | O=C(NCC(=O)N1CCCNCC1)c1ccc(S(=O)(=O)Nc2ccccc2C(=O)c2ccccc2)cc1 [Example 11.6, 4-(2-Benzoyl-phenylsulfamoyl)-N-(2-[1,4]diazepan-1-yl-2-oxo-ethyl)-benzamide hydrochloride] | < 0.02 µM | < 0.02 µM |  | 
5 | O=C(NCC(=O)N1CCCNCC1)c1ccc(S(=O)(=O)Nc2ccccc2Oc2ccccc2)cc1 [Example 11.1, N-(2-[1,4]-Diazepan-1-yl-2-oxo-ethyl)-4-(2-phenoxy-phenylsulfamoyl)-benzamide hydrochloride] | 0.02 to 0.1 µM | < 0.02 µM |  | 
6 | O=C(NCC(=O)N1CCCCC1)c1ccc(S(=O)(=O)Nc2ccccc2C(=O)c2ccccc2)cc1 [Example 3.3, 4-(2-Benzoyl-phenylsulfamoyl)-N-(2-oxo-2-piperidin-1-yl-ethyl)-benzamide] | < 0.02 µM | < 0.02 µM |  | 
7 | CCN(CC)CCN1CCN(C(=O)CNC(=O)c2ccc(S(=O)(=O)Nc3ccccc3Oc3ccc(Cl)cc3Cl)cc2)CC1 [Example 1.3, 4-[2-(2,4-Dichloro-phenoxy)-phenylsulfamoyl]-N-{2-[4-(2-diethylamino-ethyl)-piperazin-1-yl]-2-oxo-ethyl}-benzamide] | < 0.02 µM | < 0.02 µM |  | 
8 | O=C(NCC(=O)N1CCC(O)CC1)c1ccc(S(=O)(=O)Nc2ccccc2C(=O)c2ccccc2)cc1 [Example 3.16, 4-(2-Benzoyl-phenylsulfamoyl)-N-[2-(4-hydroxy-piperidin-1-yl)-2-oxo-ethyl]-benzamide] | < 0.02 µM | < 0.02 µM |  | 
9 | O=C(NCC(=O)N1CCN(c2ncccn2)CC1)c1ccc(S(=O)(=O)Nc2ccccc2Oc2ccc(Cl)cc2Cl)cc1 [Example 1.7, 4-[2-(2,4-Dichloro-phenoxy)-phenylsulfamoyl]-N-[2-oxo-2-(4-pyrimidin-2-yl-piperazin-1-yl)-ethyl]-benzamide] | < 0.02 µM | < 0.02 µM |  | 
10 | O=C(NCC(=O)N1CCC(CCO)CC1)c1ccc(S(=O)(=O)Nc2ccccc2C(=O)c2ccccc2)cc1 [Example 3.10, 4-(2-Benzoyl-phenylsulfamoyl)-N-{2-[4-(2-hydroxy-ethyl)-piperidin-1-yl]-2-oxo-ethyl}-benzamide] | < 0.02 µM | < 0.02 µM |  | 
11 | O=C(NCC(=O)N1CCNCC1)c1ccc(S(=O)(=O)Nc2ccccc2C(=O)c2ccccc2)cc1 [Example 11.7, 4-(2-Benzoyl-phenylsulfamoyl)-N-(2-oxo-2-piperazin-1-yl-ethyl)-benzamide hydrochloride] | < 0.02 µM | < 0.02 µM |  | 
12 | O=C(NCC(=O)N1CCCNCC1)c1ccc(S(=O)(=O)Nc2ccccc2Oc2ccc(Cl)cc2Cl)cc1 [Example 11.5, N-(2-[1,4]Diazepan-1-yl-2-oxo-ethyl)-4-[2-(2,4-dichloro-phenoxy)-phenylsulfamoyl]-benzamide hydrochloride] | < 0.02 µM | < 0.02 µM |  | 
13 | CN(C)CCCN1CCN(C(=O)CNC(=O)c2ccc(S(=O)(=O)Nc3ccccc3Oc3ccc(Cl)cc3Cl)cc2)CC1 [Example 1.10, 4-[2-(2,4-Dichloro-phenoxy)-phenylsulfamoyl]-N-{2-[4-(3-dimethylamino-propyl)-piperazin-1-yl]-2-oxo-ethyl}-benzamide] | < 0.02 µM | < 0.02 µM |  | 
14 | O=C(NCC(=O)N1CCCCCC1)c1ccc(S(=O)(=O)Nc2ccccc2C(=O)c2ccccc2)cc1 [Example 3.4, N-(2-Azepan-1-yl-2-oxo-ethyl)-4-(2-benzoyl-phenylsulfamoyl)-benzamide] | < 0.02 µM | < 0.02 µM |  | 
15 | O=C(NCC(=O)N1CCCN(CCCN2CCCC2)CC1)c1ccc(S(=O)(=O)Nc2ccccc2Oc2ccc(Cl)cc2Cl)cc1 [Example 1.11, 4-[2-(2,4-Dichloro-phenoxy)-phenylsulfamoyl]-N-{2-oxo-2-[4-(3-pyrrolidin-1-yl-propyl)-[1,4]diazepan-1-yl]-ethyl}-benzamide] | < 0.02 µM | < 0.02 µM |  | 
16 | O=C(NCC(=O)N1CCC(CO)CC1)c1ccc(S(=O)(=O)Nc2ccccc2Oc2ccccc2)cc1 [Example 2.22, N-[2-(4-Hydroxymethyl-piperidin-1-yl)-2-oxo-ethyl]-4-(2-phenoxy-phenylsulfamoyl)-benzamide] | < 0.02 µM | < 0.02 µM |  | 
17 | O=C(NCC(=O)N1CCNCC1)c1ccc(S(=O)(=O)Nc2ccccc2Oc2ccc(Cl)cc2Cl)cc1 [Example 11.4, 4-[2-(2,4-Dichloro-phenoxy)-phenylsulfamoyl]-N-(2-oxo-2-piperazin-1-yl-ethyl)-benzamide hydrochloride] | < 0.02 µM | < 0.02 µM |  | 
